# Data published in US12486267B2, “Imidazo[1,2-A]pyridine and [1,2,4]triazolo[1,5-A]pyridine derivatives as TLR9 inhibitors for the treatment of fibrosis” (BRISTOL-MYERS SQUIBB COMPANY, priority 2020, dated 2025).
# Legend:
# Type in all cases: cell-based
# human TLR9 = biological target: T1, human TLR9 (Homo sapiens, UniProt Q9NR96); test: TLR9 inhibition reporter assay (HEK-Blue cells, SEAP reporter); conditions: HEK-Blue cells overexpressing human TLR9; stimulated with ODN2006 5 nM; 22 hour incubation; SEAP readout
# T1 sequence (Q9NR96 26-1032): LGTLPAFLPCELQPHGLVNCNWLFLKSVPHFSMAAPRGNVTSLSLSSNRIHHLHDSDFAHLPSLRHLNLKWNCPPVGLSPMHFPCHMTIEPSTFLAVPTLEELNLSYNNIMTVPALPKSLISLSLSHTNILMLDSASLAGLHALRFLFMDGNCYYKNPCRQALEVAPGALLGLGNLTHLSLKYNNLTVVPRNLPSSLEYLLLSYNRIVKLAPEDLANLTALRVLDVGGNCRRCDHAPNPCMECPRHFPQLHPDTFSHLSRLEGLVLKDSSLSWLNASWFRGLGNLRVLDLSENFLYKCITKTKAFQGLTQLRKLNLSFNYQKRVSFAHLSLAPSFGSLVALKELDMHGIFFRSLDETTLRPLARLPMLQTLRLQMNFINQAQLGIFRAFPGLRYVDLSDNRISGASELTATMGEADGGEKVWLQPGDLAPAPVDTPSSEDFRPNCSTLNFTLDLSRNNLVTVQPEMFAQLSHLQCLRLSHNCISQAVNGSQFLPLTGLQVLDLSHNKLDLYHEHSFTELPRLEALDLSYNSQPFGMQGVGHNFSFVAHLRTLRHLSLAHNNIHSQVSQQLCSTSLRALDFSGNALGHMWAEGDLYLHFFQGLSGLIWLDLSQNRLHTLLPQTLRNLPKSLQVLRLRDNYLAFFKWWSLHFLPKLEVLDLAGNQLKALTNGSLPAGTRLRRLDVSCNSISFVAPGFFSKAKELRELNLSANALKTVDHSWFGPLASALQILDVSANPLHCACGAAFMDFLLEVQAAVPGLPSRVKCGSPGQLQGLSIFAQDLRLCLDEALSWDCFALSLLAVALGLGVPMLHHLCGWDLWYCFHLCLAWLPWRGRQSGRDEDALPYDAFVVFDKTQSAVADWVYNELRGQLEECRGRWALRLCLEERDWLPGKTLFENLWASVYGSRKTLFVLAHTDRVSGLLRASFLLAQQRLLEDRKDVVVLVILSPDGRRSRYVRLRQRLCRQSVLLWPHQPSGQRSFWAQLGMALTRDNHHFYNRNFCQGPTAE
# Method in brief: (§1)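 HEK-Blue cells with NF-κB/AP-1-driven SEAP pre-treated 30 min with compound (0.05 nM–50 μM), then stimulated with gardiquimod 7.5 μM (TLR7), R848 15.9 μM (TLR8) or ODN2006 5 nM (TLR9). SEAP detected after 22 h at 37 °C; percent inhibition relative to agonist-plus-DMSO and known-inhibitor wells.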
# human TLR7 = biological target: T2, human TLR7 (Homo sapiens, UniProt Q9NYK1); test: TLR7 inhibition reporter assay (HEK-Blue cells, SEAP reporter); conditions: HEK-Blue cells overexpressing human TLR7; stimulated with gardiquimod 7.5 μM; 22 hour incubation; SEAP readout
# T2 sequence (Q9NYK1 27-1049): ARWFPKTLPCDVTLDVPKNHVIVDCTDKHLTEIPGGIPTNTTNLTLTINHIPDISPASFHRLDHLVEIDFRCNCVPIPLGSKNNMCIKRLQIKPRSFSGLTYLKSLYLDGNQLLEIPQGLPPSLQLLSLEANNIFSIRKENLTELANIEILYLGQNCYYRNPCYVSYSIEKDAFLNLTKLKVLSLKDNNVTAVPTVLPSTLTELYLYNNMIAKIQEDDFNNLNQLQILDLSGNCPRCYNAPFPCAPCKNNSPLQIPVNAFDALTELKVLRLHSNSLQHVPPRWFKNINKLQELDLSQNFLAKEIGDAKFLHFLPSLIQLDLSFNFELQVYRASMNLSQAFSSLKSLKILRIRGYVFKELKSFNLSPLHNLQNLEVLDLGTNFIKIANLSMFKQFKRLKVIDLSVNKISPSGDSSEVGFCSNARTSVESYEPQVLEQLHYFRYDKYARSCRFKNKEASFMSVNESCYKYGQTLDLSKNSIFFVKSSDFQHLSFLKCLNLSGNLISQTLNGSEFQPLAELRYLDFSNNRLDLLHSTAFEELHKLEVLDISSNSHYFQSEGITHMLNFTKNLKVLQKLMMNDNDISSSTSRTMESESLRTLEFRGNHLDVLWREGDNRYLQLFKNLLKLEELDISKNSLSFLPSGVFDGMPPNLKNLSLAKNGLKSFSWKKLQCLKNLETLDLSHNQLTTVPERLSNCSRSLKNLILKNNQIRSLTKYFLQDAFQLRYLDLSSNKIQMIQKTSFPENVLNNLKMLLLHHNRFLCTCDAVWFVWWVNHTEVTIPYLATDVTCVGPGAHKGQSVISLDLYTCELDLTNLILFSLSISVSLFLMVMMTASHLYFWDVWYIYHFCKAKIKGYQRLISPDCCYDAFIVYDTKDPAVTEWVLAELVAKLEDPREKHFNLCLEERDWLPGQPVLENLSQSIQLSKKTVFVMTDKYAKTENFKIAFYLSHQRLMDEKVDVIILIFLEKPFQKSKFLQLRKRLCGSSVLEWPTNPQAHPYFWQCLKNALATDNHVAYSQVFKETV
# Method in brief: as §1
# human TLR8 = biological target: T3, human TLR8 (Homo sapiens, UniProt Q9NR97); test: TLR8 inhibition reporter assay (HEK-Blue cells, SEAP reporter); conditions: HEK-Blue cells overexpressing human TLR8; stimulated with R848 15.9 μM; 22 hour incubation; SEAP readout
# T3 sequence (Q9NR97 27-1041): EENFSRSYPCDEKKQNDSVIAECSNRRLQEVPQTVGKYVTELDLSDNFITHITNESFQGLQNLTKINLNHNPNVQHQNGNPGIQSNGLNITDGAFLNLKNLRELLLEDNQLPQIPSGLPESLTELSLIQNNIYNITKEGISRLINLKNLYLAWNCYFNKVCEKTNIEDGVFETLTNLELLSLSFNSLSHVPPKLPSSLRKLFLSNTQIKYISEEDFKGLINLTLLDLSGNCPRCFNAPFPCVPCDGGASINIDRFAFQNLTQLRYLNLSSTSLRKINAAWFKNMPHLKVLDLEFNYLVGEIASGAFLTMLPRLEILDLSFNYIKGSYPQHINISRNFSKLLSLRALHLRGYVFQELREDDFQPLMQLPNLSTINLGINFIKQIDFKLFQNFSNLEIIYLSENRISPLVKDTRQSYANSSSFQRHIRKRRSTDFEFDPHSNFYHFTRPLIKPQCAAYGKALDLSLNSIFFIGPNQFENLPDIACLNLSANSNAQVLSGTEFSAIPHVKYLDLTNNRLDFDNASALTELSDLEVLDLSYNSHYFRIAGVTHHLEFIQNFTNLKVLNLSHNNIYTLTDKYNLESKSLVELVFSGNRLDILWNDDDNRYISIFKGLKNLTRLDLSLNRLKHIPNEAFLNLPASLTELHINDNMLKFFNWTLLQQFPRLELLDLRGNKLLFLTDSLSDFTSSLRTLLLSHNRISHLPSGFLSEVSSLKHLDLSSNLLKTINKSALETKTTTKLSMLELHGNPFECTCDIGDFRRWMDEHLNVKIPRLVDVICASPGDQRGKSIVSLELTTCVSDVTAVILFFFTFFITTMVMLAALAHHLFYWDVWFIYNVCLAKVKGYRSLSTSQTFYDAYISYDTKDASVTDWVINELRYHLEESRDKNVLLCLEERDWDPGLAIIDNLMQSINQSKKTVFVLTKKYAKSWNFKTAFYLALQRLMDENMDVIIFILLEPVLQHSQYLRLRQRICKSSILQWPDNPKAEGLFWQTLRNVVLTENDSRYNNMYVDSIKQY
# Method in brief: as §1
Compound,IC50 (human TLR9) [nM],IC50 (human TLR7) [µM],IC50 (human TLR8) [µM]
"CC(C)N1CCCC(N2CCC(c3cc(F)c4nc(-c5ccc(S(C)(=O)=O)cc5)cn4c3)CC2)CC1 (single isomer, unassigned) [Example 71, 8-fluoro-6-(1-(1-isopropylazepan-4-yl)piperidin-4-yl)-2-(4-(methylsulfonyl)phenyl)imidazo[1,2-a]pyridine]",39,3,> 50
"CC(C)N1CCCC(N2CCC(c3cc(F)c4nc(-c5ccc(S(C)(=O)=O)cc5)cn4c3)CC2)CC1 (single isomer, unassigned) [Example 72, 8-fluoro-6-(1-(1-isopropylazepan-4-yl)piperidin-4-yl)-2-(4-(methylsulfonyl)phenyl)imidazo[1,2-a]pyridine]",2.6,3,> 50
"COc1ccc(-c2cn3c(n2)CC[C@H](C2CCN(C4CC5CCC(C4)N5CC(C)C)CC2)C3)cc1OC (single isomer, unassigned) [Example 75]",34,2.9,> 25
"COc1ccc(-c2cn3c(n2)CC[C@H](C2CCN(C4CC5CCC(C4)N5CC(C)C)CC2)C3)cc1OC (single isomer, unassigned) [Example 76]",52,1.6,> 25
"COc1ccc(-c2cn3c(n2)CC[C@@H](C2CCN(C4CC5CCC(C4)N5CC(C)C)CC2)C3)cc1OC (single isomer, unassigned) [Example 77]",64,3.6,> 25
"COc1ccc(-c2cn3c(n2)CC[C@@H](C2CCN(C4CC5CCC(C4)N5CC(C)C)CC2)C3)cc1OC (single isomer, unassigned) [Example 78]",108,8.6,> 25
"CC(C)CN1C2CCC1CC(N1CCC([C@H]3CCc4nc(-c5ccc(S(C)(=O)=O)cc5)cn4C3)CC1)C2 (single isomer, unassigned) [Example 79]",171,16.7,16.7
"CC(C)CN1C2CCC1CC(N1CCC([C@H]3CCc4nc(-c5ccc(S(C)(=O)=O)cc5)cn4C3)CC1)C2 (single isomer, unassigned) [Example 80]",52,> 50,> 50
"CC(C)CN1C2CCC1CC(N1CCC([C@@H]3CCc4nc(-c5ccc(S(C)(=O)=O)cc5)cn4C3)CC1)C2 (single isomer, unassigned) [Example 82]",21,9.2,> 50
"Cc1cc(C2CCN(C3CC4CCC(C3)N4CC3CCC3)CC2)cn2cc(-c3ccc(S(C)(=O)=O)cc3)nc12 (single isomer, unassigned) [Example 89, 6-(1-(8-(cyclobutylmethyl)-8-azabicyclo[3.2.1]octan-3-yl)piperidin-4-yl)-8-methyl-2-(4-(methylsulfonyl)phenyl)imidazo[1,2-a]pyridine]",329,2.2,> 50

# The next lines start with the values.
IC50 (human TLR9) [nM],IC50 (human TLR7) [µM],IC50 (human TLR8) [µM],Compound
28,4.4,> 25,"Cc1cc(C2CCN(C3CC4CCC(C3)N4CC3CC3)CC2)cn2cc(-c3ccc(S(C)(=O)=O)cc3)nc12 (single isomer, unassigned) [Example 87, 6-(1-(8-(cyclopropylmethyl)-8-azabicyclo[3.2.1]octan-3-yl)piperidin-4-yl)-8-methyl-2-(4-(methylsulfonyl)phenyl) imidazo[1,2-a]pyridine]"
31,0.6,> 50,"CC(C)CN1C2CCC1CC(N1CCC(c3cc(F)c4nc(-c5ccc(S(C)(=O)=O)cc5)cn4c3)CC1)C2 (single isomer, unassigned) [Example 113, 8-fluoro-6-(1-(8-isobutyl-8-azabicyclo[3.2.1]octan-3-yl)piperidin-4-yl)-2-(4-(methylsulfonyl)phenyl)imidazo[1,2-a]pyridine]"
66,2,17,"CC(C)CN1C2CCC1CC(N1CCC(c3cc(F)c4nc(-c5ccc(S(C)(=O)=O)cc5)cn4c3)CC1)C2 (single isomer, unassigned) [Example 114, 8-fluoro-6-(1-(8-isobutyl-8-azabicyclo[3.2.1]octan-3-yl)piperidin-4-yl)-2-(4-(methylsulfonyl)phenyl)imidazo[1,2-a]pyridine]"
43,1.7,49,"CS(=O)(=O)c1ccc(-c2cn3cc(C4CCN(C5CC6CCC(C5)N6CC5CC5)CC4)cc(F)c3n2)cc1 (single isomer, unassigned) [Example 115, 6-(1-(8-(cyclopropylmethyl)-8-azabicyclo[3.2.1]octan-3-yl)piperidin-4-yl)-8-fluoro-2-(4-(methylsulfonyl)phenyl)imidazo[1,2-a]pyridine]"
3.9,0.7,14,"CS(=O)(=O)c1ccc(-c2cn3cc(C4CCN(C5CC6CCC(C5)N6CC5CC5)CC4)cc(F)c3n2)cc1 (single isomer, unassigned) [Example 116, 6-(1-(8-(cyclopropylmethyl)-8-azabicyclo[3.2.1]octan-3-yl)piperidin-4-yl)-8-fluoro-2-(4-(methylsulfonyl)phenyl)imidazo[1,2-a]pyridine]"
